# Source: PubChem BioAssay (NCI)
#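 Values below derive from 48-hour exposures of cells grown in 96-well plates, with endpoints linearly interpolated between the two concentrations bracketing the appropriate inhibition level. Here, GI50 denotes the concentration required for 50% inhibition of growth. TGI marks complete inhibition of growth.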
# Legend:
# Assay in all cases: DTP human tumour cell line panel, 48 h
# BT-549 breast = tested on: BT-549 breast
# 786-0 renal = tested on: 786-0 renal
# MCF7 breast = tested on: MCF7 breast
# SR leukemia = tested on: SR leukemia
# SNB-19 CNS = tested on: SNB-19 CNS
# DU-145 prostate = tested on: DU-145 prostate
# HOP-62 NSCLC = tested on: HOP-62 NSCLC
# KM12 colon = tested on: KM12 colon
# OVCAR-8 ovarian = tested on: OVCAR-8 ovarian
# MALME-3M melanoma = tested on: MALME-3M melanoma
SMILES,GI50 (BT-549 breast),TGI (BT-549 breast),GI50 (786-0 renal),TGI (786-0 renal),GI50 (MCF7 breast),TGI (MCF7 breast),GI50 (SR leukemia),TGI (SR leukemia),GI50 (SNB-19 CNS),TGI (SNB-19 CNS),GI50 (DU-145 prostate),TGI (DU-145 prostate),GI50 (HOP-62 NSCLC),TGI (HOP-62 NSCLC),GI50 (KM12 colon),TGI (KM12 colon),GI50 (OVCAR-8 ovarian),TGI (OVCAR-8 ovarian),GI50 (MALME-3M melanoma),TGI (MALME-3M melanoma)
COc1cc2c(cc1Nc1nc(Nc3ccsc3C(N)=O)c3cc[nH]c3n1)N(C(=O)CN(C)C)CCC2,2.38 µM,6.43 µM,3.13 µM,6.95 µM,0.00343 µM,> 25 µM,0.0123 µM,3.44 µM,2.58 µM,> 25 µM,0.481 µM,1.64 µM,0.917 µM,6.84 µM,529 nM,2.66 µM,0.842 µM,> 11.2 µM,2.58 µM,6.24 µM
COc1ccc(C2CC(c3cccc(Nc4ccnc5cc(Cl)ccc45)c3)=NN2c2ccc(Cl)cc2)cc1 (centres undefined),2.67 µM,26.6 µM,2.94 µM,44 µM,3.45 µM,44.3 µM,4.29 µM,32.5 µM,15.9 µM,> 100 µM,28.4 µM,> 100 µM,2.44 µM,25.6 µM,713 nM,23.9 µM,5 µM,91 µM,22.7 µM,59.5 µM
N#Cc1ccccc1C#C/C=C\C#Cc1cnccn1,35.4 µM,> 100 µM,21 µM,> 79.3 µM,> 60 µM,> 100 µM,> 20.7 µM,> 79.7 µM,30.2 µM,> 89.4 µM,25 µM,> 100 µM,29.3 µM,> 64.6 µM,3490 nM,> 31.5 µM,33.9 µM,98.4 µM,22.3 µM,81.4 µM
COc1cc(C2C3=C(COC3=O)N(CCO)c3cc4c(cc32)CCC4)cc(OC)c1OC (centres undefined),0.136 µM,> 18.4 µM,0.119 µM,,0.0986 µM,23.8 µM,0.0692 µM,> 32.5 µM,0.0946 µM,6.38 µM,0.0787 µM,0.214 µM,0.121 µM,> 32.5 µM,70.7 nM,0.29 µM,0.118 µM,> 32.5 µM,0.598 µM,> 32.5 µM
COc1ccc(/C=C2\CC(C)CC3C2=NN(C(C)=O)C3c2ccc(OC)c(OC)c2)cc1OC (centres undefined),19 µM,37.9 µM,12.9 µM,27.4 µM,14.4 µM,30.6 µM,22.9 µM,74.4 µM,17.7 µM,39.4 µM,19.7 µM,47.8 µM,17.1 µM,37.2 µM,19700 nM,42.1 µM,23.5 µM,> 100 µM,20.1 µM,36.3 µM
C#Cc1cccc(NC(=O)Nc2cccc(NC(=O)CCl)c2)c1,16.3 µM,> 82.5 µM,25 µM,> 82.5 µM,21.7 µM,> 82.5 µM,12.9 µM,> 82.5 µM,> 82.5 µM,> 82.5 µM,> 82.5 µM,> 82.5 µM,63.6 µM,> 82.5 µM,58600 nM,> 82.5 µM,23.1 µM,> 82.5 µM,20.7 µM,> 82.5 µM
